Reference: patent US7744854B2, “Method for optimizing cancer therapy by monitoring maturation of tumor associated vasculature by selenium” (Health Research, Inc., priority 2006, dated 2010)
“Also recorded” adds a separate entry of the source.

Tests used:
FaDu xenografts [1] = test: Hoechst 33342 / DiOC7 fluorescent dye uptake, functional tumor vasculature; format: in vivo, mouse; conditions: post 14 days MSC treatment
Procedure: Initial studies on uptake of fluorescent dyes Hoechst 33342 (i.v at 15 mg/kg in sterile phosphate buffered saline) followed 20 minutes later with DiOC7 (i.v. at 1 mg/kg in dimethyl sulfoxide) in mice bearing A253 and FaDu xenografts are indicative of tumor vascular maturation by MSC. Uptake of both dyes is indicative of functional vasculature while uptake of only one dye is indicative of […] vasculature. […] Abnormal vasculature shut off when challenged with dyes similar to Hoechst 33342 while blood flow through ‘normalized’ vasculature is not affected.

[2] = tested on: HNSCC xenografts FaDu and A253; test: Tumor vascular maturation index and mean vessel lumen area; format: in vivo; conditions: vs untreated control tumors
Description: FIG. 5A summarizes effect of MSC treatment on tumor vascular maturation index (VMI) and on the mean tumor vessel lumen area (FIG. 5B) in HNSCC xenografts FaDu and A253. […] Treatment with MSC makes the arrangement less chaotic and more ‘normalized’ in arrangement.

[3] = tested on: endothelial cells in the angiogenic microvessels; test: CD31/Tunnel double staining of angiogenic microvessels; format: in vivo, mouse
Description: (§1) Thus, selenium inhibits proliferation of endothelial cells.

VEGF = VEGF expression (WB) and secretion (ELISA) in FaDu tumor cells in vitro; format: cell-based
Description: as §1

[4] = Tumor drug uptake by HPLC in FaDu xenografts; format: in vivo
Procedure: FIGS. 6A and 6B show the effect of 14 days pre-treatment with MSC prior to drug administration on tumor drug uptake (2 hours post i.v.) as determined by HPLC in FaDu xenografts for CPT-11 and doxorubicin respectively. […] The drug concentration in the normal tissues studied such as liver, plasma.

[5] = tested on: matrigel plug containing cultured FaDu tumor cells; test: Matrigel plug (s.c.) containing cultured FaDu tumor cells, microvessel count; format: in vivo; conditions: 0.2 mg/mouse/day, after 1 week, 10^6 cells s.c., p<0.05
Description: as §1

FaDu xenografts [6] = test: Intratumoral microvessel density (CD31 immunostaining) in FaDu xenografts; format: in vivo; conditions: 0.2 mg/mouse/day, after 2 weeks, p<0.05
Description: Microvessels were counted based on endothelial cells immunostaining with CD31 Mab on paraffin sections, after zinc fixative (p<0.05 in each system).

CD36 = test: Western blot of FaDu xenografts: CD36; format: in vivo; conditions: selenium for 14 days
Description: (§2) MSC up-regulates Thrombospondin-1 (TSP-1) a potent inhibitor of angiogenesis and important controller of tumor growth and its receptor CD36 (FIG. 8A), HIF-1α expression (FIG. 8B) and relative intensity (FIG. 8C). To assess the effects of selenium on TVM, the expression of molecular markers associated with tumor hypoxia, drug resistance and increased proliferation, namely, hypoxia-inducible factor 1∝ (HIF-1∝), Cyclooxygenase-2 (Cox-2), inducible nitric oxide, propyl hydroxyl domain (PHD) and vascular endothelial growth factor (VEGF) were evaluated in xenograft tumors. Selenium was administered for 14 days. Western blot analysis was performed to determine the effect of MSC treatment on different antiangiogenic markers TSP-1, CD36, Delta-like 4 ligand (DLL4) and hypoxia inducible factor HIF-1α Data in FIG. 8A indicate that CD36 is up regulated in FaDu xenografts treated with MSC. Along with the CD36 MSC up regulates TSP-1, which is known to be involved in the inhibition of angiogenesis. Further, MSC down-regulates DLL4 in FaDu xenografts.

FaDu xenografts [7] = test: DCE-MRI (albumin-GdDTPA) of tumor vascular permeability and volume in FaDu xenografts; format: in vivo, mouse
Procedure: FaDu xenograft bearing mice were used. MSC was administered for 14 days. Mice were imaged using a 4.7-T/33-cm horizontal bore magnet (GE NMR Instruments, Fremont, Calif.) incorporating AVANCE digital electronics [Bruker Biospec, ParaVision 3.0.2 OS); Bruker Medical, Billerica, Mass.], a removable gradient coil insert (G060; Bruker Medical) generating a maximum field strength of 950 mT/m, and a custom-designed radiofrequency transreceiver coil. Animals were anesthetized before imaging with a ketamine/xylazine mixture (10:1) at a dose of […], secured in a mouse coil chamber, and positioned on a scanner. The animals were kept warm in the magnet using a circulating water bath maintained at 37 jC. […] T1 relaxation rates were determined using a saturation recovery, fast spin echo sequence with an effective echo time (TE) of 10 milliseconds, and a TR ranging from 360 to 6000 milliseconds [FOV=32×32 mm, slice thickness=1.0 mm, matrix size=128×96 pixels, number of excitations (NEX)=3]. […]
Image processing and analysis were carried out using commercially available software (ANALYZE PC, Version 5.0; Biomedical Imaging Resource, Mayo Foundation, Rochester, Minn.) (Matlab's curve-fitting toolbox, Matlab Version 7.0; Math Works, Inc., Natick, Mass.). […] Percent tumor enhancement (E) was then calculated from relative intensity (RI) […]

FaDu tumors = test: CD31/α-SMA double immunohistochemical staining of FaDu tumors; format: in vivo, mouse; conditions: day 14 of MSC treatment
Description: MSC treatment results in reduction of tumor vascular leakiness as reflected by the slope of the ΔR1 values in FaDu xenografts. This could be a result of tumor vascular maturation as determined by the double immunohistochemical staining for the pan endothelial cell adhesion molecule (PECAM; CD31) and α-SMA in control and MSC treated mice (Day 14 of MSC treatment).
This is in agreement with our estimates of MVD as MSC treatment does lead to a reduction in MVD. However, the decrease in permeability could be a result of the ‘maturation’ effect of MSC. To validate findings from the imaging studies, immunohistochemical staining for the pan endothelial cell adhesion molecule (PECAM; CD31) along with staining with alpha-smooth muscle actin was performed in control and MSC-treated mice (Day 14 after treatment).

HIF-1α = HIF-1α expression in hypoxic FaDu tumor cells in vitro; format: cell-based; conditions: 24 hr hypoxic conditions, preliminary results
Description: To determine whether HIF-1α is a target for MSC, FaDu tumor cells were exposed in vitro for 24 hr to hypoxic conditions and analyzed for HIF-1α expression to FaDu cells. […] The data in FIG. 8C is graphic representation of the relative intensity of each marker.

Thrombospondin-1 (TSP-1) = test: Western blot of FaDu xenografts: TSP-1; format: in vivo; conditions: selenium for 14 days
Description: as §2

tumor microvessels = test: Histopathological studies for direct antivascular effect; format: in vivo, mouse; conditions: histopathology
Description: as §1

[8] = tested on: Delta-like 4 ligand (DLL4); test: Western blot of FaDu xenografts: DLL4; format: in vivo; conditions: selenium for 14 days
Description: as §2

HNSCC xenograft FaDu = test: Dose and schedule dependence of therapeutic synergy with irinotecan in FaDu xenograft; format: in vivo
Description: A minimum 7 days pretreatment with MSC is required to achieve optimal therapeutic synergy with a representative anticancer drug—irinotecan. […] Daily pretreatment for 7-14 days was critical to achieve the selective effects of selenium. This reflects the time required for priming of tumor vasculature by MSC in order to see the therapeutic end results.

[9] = combination treatment with SN-38
[10] = 14 days MSC pre-treatment, 2 hours post i.v., vs monotherapy

SMILES: C[Se]C[C@H](N)C(=O)O [MSC, methylselenocysteine]
- vasculature with uptake of both dyes ('normalized' functional vasculature) (FaDu xenografts [1]): approximately 80%
- mean tumor vessel lumen area ([2]; p<0.0001): reduction
- tumor vascular maturation index (VMI) ([2]; p<0.05): significant increase
- apoptotic endothelial cell nuclei in angiogenic microvessels [3]: did not show apoptotic endothelial cell nuclei
- VEGF expression (WB) (VEGF; [9]): down regulates
- VEGF secretion (ELISA) (VEGF; [9]): down regulates
- VEGF secretion (VEGF; selenium alone): decreased
- intratumoral drug concentration, CPT-11 (SN-38 per FIG. 6A) [4, 10]: more than doubling
- intratumoral drug concentration, doxorubicin [4, 10]: more than doubling
- drug concentration in normal tissues ([4]; liver, plasma, kidney, combination with MSC vs monotherapy): did not show a significant increase
- microvessel density in matrigel plug containing FaDu tumor cells [5]: decreases
- intratumoral microvessel density (MVD) (FaDu xenografts [6]): decreases
- CD36 expression (CD36): up regulated
- tumor vascular volume (FaDu xenografts [7]; 14 days MSC treatment): statistically significant decrease
- tumor vascular permeability (leakiness; slope of ΔR1) (FaDu xenografts [7]; 14 days MSC vs volume matched control): reduction; also recorded: statistically significant decrease
- pericyte recruitment / α-SMA staining of tumor vasculature (FaDu tumors): Increased pericyte recruitment; also recorded: increased staining of α-SMA
- HIF-1α expression (HIF-1α): significant inhibition
- TSP-1 expression (Thrombospondin-1 (TSP-1)): up regulates
- direct antivascular effect (microvessel necrosis, endothelial cell death, microthrombus formation) (tumor microvessels): did not show any signs of other direct antivascular effect
- DLL4 expression [8]: down-regulates
- minimum pretreatment required for optimal therapeutic synergy with irinotecan (HNSCC xenograft FaDu; daily MSC): ≥ 7 days
- therapeutic effect (HNSCC xenograft FaDu; with irinotecan): dose and schedule dependent
